We go through twelve molecules from patent US20030194750A1, “Methods for treatment of diseases where GSK 3-beta is desired, and methods to identify compounds usefule for that” (priority 2002, published 2003).

The target of assay [1] is T1, GST-cGB-PDE5 fusion protein (Homo sapiens, UniProt O76074).
T1 construct: made in house; host or cells: E. coli BL21 (DE3)
The assay is described as follows: cGMP binding assay with GST-cGB-PDE5 fusion protein. The note with it: for competition with cGMP binding at high concentration: 100 μM compound vs cGMP 2 μM. How it is done:
5′-3′, Inc. kits for total RNA followed by oligo (dT) column purification of mRNA are used with HT-29 cells. […] It is then cloned into pGEX-5X-3 glutathione-S-transferase (GST) fusion vector (Pharmacia Biotech) with tac promoter, and EcoRI and XhoI cut sites. The fusion vector is then transfected into E. Coli BL21 (DE3) bacteria (Invitrogen). The transfected BL21 bacteria is grown to log phase, and then IPTG is added as an inducer. The induction is carried at 20° C. for 24 hrs. The bacteria are harvested and lysed. The soluble cell lysate is incubated with GSH conjugated Sepharose 4B (GSH-Sepharose 4B). The GST-cGB-PDE5 fusion protein can bind to the GSH-Sepharose beads, and the other proteins are washed off from beads with excessive cold PBS.
Then, the mixture is transferred to Brandel MB-24 cell harvester with GF/B as the filter membrane followed by 2 washes with 10 mL of cold 5 mM potassium buffer( pH 6.8). The membranes are then cut out and transferred to scintillation vials followed by the addition of 1 mL of H2O and 6 mL of Ready Safe™ liquid scintillation cocktail to each vial. The vials are counted on a Beckman LS 6500 scintillation counter.
The quenching by filter membrane or other debris are also calibrated.

In another assay the test system is GSK3β. The assay is described as follows: Western blot of GSK3β-phospho-ser9 in SW480 cells. It counts as cell-based, human. The note with it: various concentrations, 48 hours, vs 0 concentration. As for the experimental part:
(§1) 50 μg protein/lane were analyzed by Western blot analysis using specific anti-PKG1β and anti-GSK3β-phospho-ser9 antibodies.
A general note: In western blotting, separated proteins are transferred to a membrane and probed.

A further assay has as its system PKG1β. In words: Western blot of PKG1β in SW480 cells. It counts as cell-based, human. The note with it: various concentrations, 48 hours. As for the experimental part:
as §1

A further assay deals with PKG. The assay is described as follows: PKG activity assay on lysates of drug-treated SW480 colon cancer cells (32P phosphorylation of PDE5/GST substrate). It counts as cell-based, human. To be noted: SW480 cells treated 48 hrs; exisulind 200, 400, 600 μM, E4021 0.1, 1, 10 μM; assay with and without added cGMP. As for the experimental part: A compound that inhibits all these types of PDE is desirable, accordingly. Below, we provide examples of such PDE-inhibiting compounds.
SW 480 is known to contain the APC mutation. About 5 million SW480 cells in RPMI 5% serum are added to each of 8 dishes:
2-10 cm dishes - - - 30 μL DMSO vehicle control (without drug),
3-10 cm dishes - - - 200 μM, 400 μM, 600 μM exisulind in DMSO, and
The dishes are incubated for 48 hrs at 37° C. in 5% CO2 incubator.
The liquid media are aspirated from the dishes (the cells will attach themselves to the dishes). The attached cells are washed in each dish with cold PBS, and 200 μL cell lysis buffer (i.e., 50 mM Tris-HCl, 1% NP-40, 150 mM NaCl, 1 mM EDTA, 1 mM Na3VO4, 1 mM NaF, 500 μM IBMX with proteinase inhibitors) is added to each dish. Immediately after the cell lysis buffer is added, the lysed cells are collected by scraping the cells off each dish. The cell lysate from each dish is transferred to a microfuge tube, and the microfuge tubes are incubated at 4° C. for 15 minutes while gently agitating the microfuge tubes to allow the cells to lyse completely. […]
For each control or drug cell lysate sample to be evaluated, the reaction is started by adding phosphorylation buffer containing 10 μCi ^32P-γ-ATP solution (200 μM ATP, 4.5 mM MgCl; 5 mM KH2PO4; 5 mM K2HPO4;) to each mixture. […]

A further assay deals with native bovine PDE5 (Bos taurus, UniProt Q28156). The note with it: read-out: Kd of cGMP binding; cited from earlier work.

Structures are written as SMILES. Where two headings read alike, the source gives them in different places.

T1 sequence (O76074 46-539 limits assumed): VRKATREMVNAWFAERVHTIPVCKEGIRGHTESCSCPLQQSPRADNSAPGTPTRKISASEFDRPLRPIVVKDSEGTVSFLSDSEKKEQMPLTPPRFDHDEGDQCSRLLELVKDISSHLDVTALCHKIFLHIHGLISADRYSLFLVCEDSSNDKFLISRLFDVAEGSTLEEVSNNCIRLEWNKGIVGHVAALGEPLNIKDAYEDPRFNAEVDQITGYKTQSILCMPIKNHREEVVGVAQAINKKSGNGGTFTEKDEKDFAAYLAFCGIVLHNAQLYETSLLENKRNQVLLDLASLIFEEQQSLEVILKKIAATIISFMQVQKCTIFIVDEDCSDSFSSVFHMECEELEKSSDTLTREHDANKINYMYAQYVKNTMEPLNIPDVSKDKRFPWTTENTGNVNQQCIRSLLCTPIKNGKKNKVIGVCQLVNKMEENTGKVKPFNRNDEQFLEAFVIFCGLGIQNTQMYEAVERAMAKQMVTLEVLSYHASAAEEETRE

`CCCCOC1C2OP(=O)(O)OCC2OC1n1cnc2c(N)ncnc21` (stereo not shown) [2′-O-butyl-cAMP]: the “competition with cGMP for the cGMP binding sites” value in assay [1] (3H-cGMP 2 μM, 22° C., 1 hour) is “did not compete with cGMP in binding”.

Regarding `CCCCOC1C2OP(=O)(O)OCC2OC1n1cnc2c(=O)[nH]c(N)nc21` (stereo not shown) [2′-O-butyl-cGMP], in assay [1] (3H-cGMP 2 μM, 22° C., 1 hour), the “competition with cGMP for the cGMP binding sites” value was “did not compete with cGMP in binding”.

For `COc1cc(/C=C2/C(C)=C(CC(=O)NCc3ccccc3)c3cc(F)ccc32)cc(OC)c1OC` [Compound A, 1H-indene-3-acetamide, 5-fluoro-2-methyl-N-(phenylmethyl)-1-[(3,4,5-trimethoxyphenyl)methylene]-, (1Z)], the “GSK3β inactivation by Ser9 phosphorylation” value in the assay on GSK3β is “inactivated in vivo by phosphorylation of its Ser9”. The PKG1 induction entry in the assay with PKG1β is “PKG1 induction in a dose-dependent manner”.

For the molecule `Nc1ncnc2c1ncn2[C@@H]1O[C@@H]2COP(=O)(O)O[C@H]2[C@H]1O` [Cyclic AMP], the “competition with cGMP for the cGMP binding sites” value in assay [1] was “did not compete with cGMP in binding”.

Turning to `O=c1[nH]cnc2c1ncn2[C@@H]1O[C@@H]2COP(=O)(O)O[C@H]2[C@H]1O` [Cyclic IMP], the “competition with cGMP binding at high concentration” value in assay [1] is on record as “can partially compete with cGMP”.

Take `Nc1nc2c(nc(Br)n2[C@@H]2O[C@@H]3COP(=O)(O)O[C@H]3[C@H]2O)c(=O)[nH]1` [Example 8-bromo-cGMP, 8-bromo-cGMP]: the “competition with cGMP binding at high concentration” value in assay [1] is recorded as “can partially compete with cGMP”.

With `O=C([O-])C1CCN(c2nc(NCc3ccc4c(c3)OCO4)c3cc(Cl)ccc3n2)CC1.[Na+]` [Example E4021], the “competition with cGMP for the cGMP binding sites” value in assay [1] (3H-cGMP 2 μM, 22° C., 1 hour) is given as “None of the PDE5 inhibitors showed any competition with cGMP in binding”. The “PKG activity relative to control” value with PKG is recorded as “do not exhibit PKG activation relative to control”.

As to `CSc1ccc(/C=C2/C(C)=C(CC(=O)O)c3cc(F)ccc32)cc1` [Sulindac sulfide], in assay [1] (3H-cGMP 2 μM, 22° C., 1 hour), the “competition with cGMP for the cGMP binding sites” value is reported as “None of the PDE5 inhibitors showed any competition with cGMP in binding”.

For the molecule `Nc1ccn([C@@H]2O[C@@H]3COP(=O)(O)O[C@H]3[C@H]2O)c(=O)n1` [cCMP, cyclic CMP], the “competition with cGMP for the cGMP binding sites” value in assay [1] (3H-cGMP 2 μM, 22° C., 1 hour) is given as “did not compete with cGMP in binding”.

Consider `Nc1nc2c(ncn2[C@@H]2O[C@@H]3COP(=O)(O)O[C@H]3[C@H]2O)c(=O)[nH]1` [cGMP, cyclic 3′,5′-guanosine monophosphate], for which the “binding of cGMP to the fusion protein” value in assay [1] is given as “specifically bound to GST-cGB-PDE5 protein”. Moreover, the Kd in assay [1] (read-out: Kd of cGMP binding, two cGMP binding sites) was 1600 ± 200 nM; on native bovine PDE5, 1300 nM.

As for `O=c1ccn([C@@H]2O[C@@H]3COP(=O)(O)O[C@H]3[C@H]2O)c(=O)[nH]1` [cUMP, cyclic UMP], in assay [1] (3H-cGMP 2 μM, 22° C., 1 hour), the “competition with cGMP for the cGMP binding sites” value is recorded as “did not compete with cGMP in binding”.

In the case of `CCCOc1ccccc1-c1nc2nn[nH]c2c(=O)[nH]1` [zaprinast], the “competition with cGMP for the cGMP binding sites” value in assay [1] (3H-cGMP 2 μM, 22° C., 1 hour) is “None of the PDE5 inhibitors showed any competition with cGMP in binding”.

A word on the Kd: it is the free concentration of one partner at which half of the binding sites on the other are occupied at equilibrium, for simple one-to-one binding.
